Values joined by “and” are separate entries in the source; they are usually repeats but may differ in a detail not shown here. Equal entries are not always repeated.
What was measured:
[1] = for Normal melting temperature: DTA
[2] = Molar enthalpy of transition or fusion; details: Crystal; DSC

Nc1cccc(O)c1 [3-hydroxybenzenamine]
[1], Crystal, Calculated from knudsen effusion weight loss
Details	vapor or sublimation pressure
321.35 K	0.000101 kPa and 0.000102 kPa
323.2 K	0.000127 kPa and 0.000126 kPa
325.17 K	0.000163 kPa and 0.000161 kPa and 0.000162 kPa
327.4 K	0.000209 kPa and 0.000211 kPa and 0.00021 kPa
329.2 K	0.00026 kPa and 0.000259 kPa
331.17 K	0.000327 kPa and 0.00033 kPa and 0.000328 kPa
333.37 K	0.000422 kPa and 0.00042 kPa
335.2 K	0.000513 kPa and 0.0005 kPa and 0.00051 kPa
337.16 K	0.00063 kPa and 0.000633 kPa
339.36 K	0.000816 kPa and 0.000808 kPa and 0.000818 kPa
341.19 K	0.00099 kPa and 0.000998 kPa and 0.001 kPa
343.33 K	0.001245 kPa and 0.001241 kPa and 0.001238 kPa

[1]
Details	vapor or sublimation pressure [kPa]
354.45 K, Crystal	0.00426
356.39 K, Crystal	0.00515
358.34 K, Crystal	0.00622
360.33 K, Crystal	0.00754
362.32 K, Crystal	0.00913
364.28 K, Crystal	0.01083
366.24 K, Crystal	0.01321
368.21 K, Crystal	0.01572
369.99 K, Metastable liquid	0.02985
370.19 K, Crystal	0.01886
371.93 K, Metastable liquid	0.03445
372.14 K, Crystal	0.02314
373.94 K, Metastable liquid	0.03983
374.12 K, Crystal	0.02745
375.91 K, Metastable liquid	0.04535
376.1 K, Crystal	0.03277
377.86 K, Metastable liquid	0.05245
378.06 K, Crystal	0.0385
379.83 K, Metastable liquid	0.06035
380.03 K, Crystal	0.04532
381.81 K, Metastable liquid	0.06885
382.13 K, Crystal	0.05475
383.79 K, Metastable liquid	0.07865
383.96 K, Crystal	0.06316
385.75 K, Metastable liquid	0.08925
385.9 K, Crystal	0.07525
387.75 K, Metastable liquid	0.1024
387.9 K, Crystal	0.08917
389.74 K, Metastable liquid	0.1162
389.85 K, Crystal	0.1058
391.73 K, Metastable liquid	0.131
391.83 K, Crystal	0.1242
393.68 K, Metastable liquid	0.1478
395.67 K, Metastable liquid	0.1684
397.62 K, Liquid	0.1915
399.72 K, Liquid	0.2191
401.54 K, Liquid	0.2426
403.63 K, Liquid	0.2731
405.59 K, Liquid	0.3119
407.46 K, Liquid	0.3461
409.54 K, Liquid	0.3932
411.5 K, Liquid	0.4342
413.47 K, Liquid	0.4825
415.43 K, Liquid	0.5451
417.4 K, Liquid	0.6031
419.39 K, Liquid	0.6721
421.33 K, Liquid	0.7506
423.31 K, Liquid	0.8416

Details	Normal melting temperature [°C]
[1], Crystal	121.48

Details	Molar enthalpy of transition or fusion [kcal/mol]
[2]	5.6

Nc1ccc(O)cc1 [4-hydroxybenzenamine]
[1], Crystal, Calculated from knudsen effusion weight loss
Details	vapor or sublimation pressure
337.15 K	0.000113 kPa and 0.000111 kPa
339.54 K	0.000144 kPa and 0.000147 kPa and 0.000145 kPa
341.2 K	0.000179 kPa and 0.000175 kPa and 0.000177 kPa
343.15 K	0.000223 kPa and 0.000221 kPa and 0.000219 kPa
345.47 K	0.000284 kPa and 0.00028 kPa and 0.000287 kPa
347.19 K	0.000348 kPa and 0.000342 kPa and 0.000344 kPa
349.15 K	0.000425 kPa and 0.000418 kPa and 0.000431 kPa
351.21 K	0.000527 kPa and 0.000533 kPa and 0.00053 kPa
353.2 K	0.000653 kPa and 0.000634 kPa and 0.000645 kPa
355.14 K	0.000787 kPa and 0.000786 kPa and 0.000796 kPa
357.46 K	0.001018 kPa and 0.001002 kPa and 0.001003 kPa
359.19 K	0.001205 kPa and 0.001211 kPa and 0.001198 kPa

Details	Normal melting temperature [°C]
[1], Crystal	186.89

Details	Molar enthalpy of transition or fusion [kcal/mol]
[2]	7.51

Nc1ccccc1O [2-hydroxybenzenamine]
[1], Crystal, Calculated from knudsen effusion weight loss
Details	vapor or sublimation pressure
321.12 K	0.000107 kPa and 0.000105 kPa and 0.000106 kPa
323.43 K	0.000141 kPa and 0.000138 kPa and 0.000139 kPa
325.14 K	0.00017 kPa and 0.000172 kPa
327.13 K	0.000212 kPa and 0.000214 kPa
329.3 K	0.000271 kPa and 0.000277 kPa and 0.000275 kPa
331.21 K	0.000343 kPa and 0.000335 kPa and 0.00034 kPa
333.13 K	0.000423 kPa and 0.000419 kPa
335.33 K	0.000534 kPa and 0.000541 kPa and 0.000538 kPa
337.2 K	0.000661 kPa and 0.000654 kPa and 0.000657 kPa
339.14 K	0.000824 kPa and 0.000835 kPa and 0.000826 kPa
341.33 K	0.001036 kPa and 0.001041 kPa and 0.001043 kPa
343.26 K	0.00129 kPa and 0.001263 kPa

Details	Normal melting temperature [°C]
[1], Crystal	174.38

Details	Molar enthalpy of transition or fusion [kcal/mol]
[2]	7.79
